Columns and labels:
[1] = tested on: MOOVA (Monochoria); assay: Postemergence weed control under flooded paddy conditions; type: in vivo, Monochoria vaginalis; conditions: postemergence weeds
Method in brief: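 Herbicidal effect is judged by eye on a 0–9 scale versus control, 3–4 weeks after dosing. Dosing is into flood water kept 1.5–3 cm over the soil, at about 0.0313–0.500 kg/ha in aqueous/acetone 50/50 v/v, on 3–5 cm weeds and 1.5–2.5-leaf rice seedlings.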

[2] = tested on: CHEAL (Lambsquarters, Common); assay: Preemergence herbicidal evaluation; type: in vivo, Chenopodium album; conditions: rated 4-5 weeks after treatment; for CHEAL rating: preemergence, 0-9 scale
Method in brief: (§1)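 Visual 0-9 rating vs control (stand, vigor, malformation, size, chlorosis, overall appearance), scored 4-5 wk after spraying. Seeded soil cups were treated preemergence with compound in aqueous acetone, ~0.0156-0.500 kg/ha equivalent.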

[3] = tested on: CYPSE (Flatsedge); assay: Preemergence weed control under flooded paddy conditions; type: in vivo, Cyperus serotinus; conditions: rated 3-4 weeks after treatment
Method in brief: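 Ratings on a 0-9 visual scale cover stand, vigor, malformation, size, chlorosis and overall appearance relative to a control, taken three to four weeks post-treatment. Application was into flood water over freshly sown silt loam at roughly 0.0313 to 0.500 kg/ha.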

[4] = tested on: ECHCG (Barnyardgrass); assay: Postemergence herbicidal evaluation; type: in vivo, Echinochloa crus-galli; conditions: for ECHCG herbicidal rating / Herbicidal rating ECHCG: postemergence
Method in brief: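 Each compound, dispersed in an acetone/water mix (50/50) carrying 0.5% TWEEN 20, is nozzle-sprayed at 40 psi on approximately two-week-old seedlings at about 0.0156–0.500 kg/ha. Plants are assessed 4–5 weeks afterward on a 0–9 scale relative to control; duplicate tests are averaged.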

[5] = tested on: ECHORC (Watergrass (Calif.)); assay: Preemergence weed control under flooded paddy conditions; type: in vivo, Echinochloa oryzoides; conditions: rated 3-4 weeks after treatment
Method in brief: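 Herbicidal effect is scored visually on a 0-9 scale against an untreated control, three to four weeks after compounds are pipetted into the flood water (1.5 to 3 cm deep) over seeds planted in silt loam at 0.5 cm depth. Rates: about 0.0313 to 0.500 kg/ha.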

[6] = tested on: ORYSAT (Rice, Tebonnet); assay: Preemergence herbicidal evaluation; type: in vivo, Oryza sativa, (L.) Tebonnet; conditions: rated 4-5 weeks after treatment; for ORYSAT rating: preemergence, 0-9 scale
Method in brief: as §1

[7] = rate 0.0313 kg/ha, 3-4 weeks after treatment
[8] = rate 0.1250 kg/ha, 3-4 weeks after treatment
[9] = rate 0.2500 kg/ha, 3-4 weeks after treatment
[10] = Rate 0.0313 kg/ha, rated 3 to 4 weeks after treatment
[11] = Rate 0.0625 kg/ha, rated 3 to 4 weeks after treatment
[12] = Rate 0.1250 kg/ha, rated 3 to 4 weeks after treatment
[13] = Rate 0.2500 kg/ha, rated 3 to 4 weeks after treatment

Cn1c(C(F)(F)F)cc(=O)n(-c2cc(N=C3SCC(=O)N3CC(=O)OC(C)(C)C)c(Cl)cc2F)c1=O [Compound 43, tert-Butyl 2-{{2-chloro-5-[3,6-dihydro-3-methyl-2,6-dioxo-4-(trifluoromethyl)-1(2H)-pyrimidinyl]-4-fluorophenyl}imino}-4-oxo-3-thiazolidineacetate]
Herbicidal rating MOOVA [1, 7]: 9.0 | Herbicidal rating MOOVA ([1]; rate 0.0825 kg/ha, 3-4 weeks after treatment): 9.0 | Herbicidal rating MOOVA [1, 8]: 9.0 | Herbicidal rating MOOVA [1, 9]: 9.0 | Preemergence herbicidal rating CHEAL ([2]; rate 0.0156 kg/ha): 9.0 | Preemergence herbicidal rating CHEAL ([2]; rate 0.0313 kg/ha): 9.0 | Preemergence herbicidal rating CHEAL ([2]; rate 0.0625 kg/ha): 9.0 | Preemergence herbicidal rating CHEAL ([2]; rate 0.1250 kg/ha): 9.0 | Preemergence herbicidal rating CHEAL ([2]; rate 0.2500 kg/ha): 9.0 | Herbicidal rating CYPSE ([3]; 0.0313 kg/ha): 5.0 | Herbicidal rating CYPSE ([3]; 0.0625 kg/ha): 5.0 | Herbicidal rating CYPSE ([3]; 0.1250 kg/ha): 8.0 | Herbicidal rating CYPSE ([3]; 0.2500 kg/ha): 9.0 | Postemergence herbicidal rating ECHCG ([4]; Rate 0.0158 kg/ha): 0.0 | Postemergence herbicidal rating ECHCG ([4]; Rate 0.0315 kg/ha): 0.0 | Postemergence herbicidal rating ECHCG ([4]; Rate 0.0630 kg/ha): 0.0 | Herbicidal rating ECHORC ([5]; 0.0313 kg/ha): 5.0 | Herbicidal rating ECHORC ([5]; 0.0625 kg/ha): 6.0 | Herbicidal rating ECHORC ([5]; 0.1250 kg/ha): 7.0 | Herbicidal rating ECHORC ([5]; 0.2500 kg/ha): 9.0 | Preemergence herbicidal rating ORYSAT ([6]; rate 0.0156 kg/ha): 0.0 | Preemergence herbicidal rating ORYSAT ([6]; rate 0.0313 kg/ha): 0.0 | Preemergence herbicidal rating ORYSAT ([6]; rate 0.0625 kg/ha): 0.0 | Preemergence herbicidal rating ORYSAT ([6]; rate 0.1250 kg/ha): 0.0 | Preemergence herbicidal rating ORYSAT ([6]; rate 0.2500 kg/ha): 0.0

CN1C(=O)C(CC(=O)Nc2ccccc2)SC1=Nc1cc(-n2c(=O)cc(C(F)(F)F)n(C)c2=O)c(F)cc1Cl (stereo not drawn) [Compound 91, 2-{{2-Chloro-5-[3,6-dihydro-3-methyl-2,6-dioxo-4-(trifluoromethyl)-1(2H)-pyrimidinyl]-4-fluorophenyl}imino}-3-methyl-4-oxo-5-thiazolidineacetanilide]
Herbicidal rating MOOVA [1, 10]: 9.0 | Herbicidal rating MOOVA [1, 11]: 9.0 | Herbicidal rating MOOVA [1, 12]: 9.0 | Herbicidal rating MOOVA [1, 13]: 9.0 | CHEAL rating ([2]; 0.1250 kg/ha): 4.0 | CHEAL rating ([2]; 0.2500 kg/ha): 9.0 | CYPSE herbicidal effect rating ([3]; 0.0313 kg/ha): 0.0 | CYPSE herbicidal effect rating ([3]; 0.0625 kg/ha): 0.0 | CYPSE herbicidal effect rating ([3]; 0.1250 kg/ha): 0.0 | CYPSE herbicidal effect rating ([3]; 0.2500 kg/ha): 0.0 | ECHCG herbicidal rating ([4]; rate 0.0158 kg/ha): 0.0 | ECHCG herbicidal rating ([4]; rate 0.0315 kg/ha): 0.0 | ECHCG herbicidal rating ([4]; rate 0.0630 kg/ha): 0.0 | ECHORC herbicidal effect rating ([5]; 0.0313 kg/ha): 0.0 | ECHORC herbicidal effect rating ([5]; 0.0625 kg/ha): 0.0 | ECHORC herbicidal effect rating ([5]; 0.1250 kg/ha): 2.0 | ECHORC herbicidal effect rating ([5]; 0.2500 kg/ha): 4.0 | ORYSAT rating ([6]; 0.1250 kg/ha): 0.0 | ORYSAT rating ([6]; 0.2500 kg/ha): 0.0

C=CCN1C(=O)C(CC(=O)NS(=O)(=O)CC)SC1=Nc1cc(-n2c(=O)cc(C(F)(F)F)n(C)c2=O)c(F)cc1Cl (stereo not drawn) [Compound 104, 3-Allyl-2-{{2-chloro-5-[3,6-dihydro-3-methyl-2,6-dioxo-4-(trifluoromethyl)-1(2H)-pyrimidinyl]-4-fluorophenyl}imino}-N-(ethylsulfonyl)-4-oxo-5-thiazolidineacetamide]
Herbicidal rating MOOVA [1, 10]: 7.0 | Herbicidal rating MOOVA [1, 11]: 9.0 | Herbicidal rating MOOVA [1, 12]: 9.0 | Herbicidal rating MOOVA [1, 13]: 9.0 | CHEAL rating ([2]; 0.0625 kg/ha): 0.0 | CHEAL rating ([2]; 0.1250 kg/ha): 9.0 | CHEAL rating ([2]; 0.2500 kg/ha): 9.0 | CHEAL rating ([2]; 0.5000 kg/ha): 9.0 | CYPSE herbicidal effect rating ([3]; 0.0313 kg/ha): 0.0 | CYPSE herbicidal effect rating ([3]; 0.1250 kg/ha): 0.0 | CYPSE herbicidal effect rating ([3]; 0.2500 kg/ha): 0.0 | Herbicidal rating ECHCG ([4]; rate 0.0156 kg/ha): 0.0 | Herbicidal rating ECHCG ([4]; rate 0.0313 kg/ha): 0.0 | Herbicidal rating ECHCG ([4]; rate 0.0625 kg/ha): 0.0 | Herbicidal rating ECHCG ([4]; rate 0.1250 kg/ha): 3.0 | ECHORC herbicidal effect rating ([5]; 0.0313 kg/ha): 4.0 | ECHORC herbicidal effect rating ([5]; 0.0625 kg/ha): 5.0 | ECHORC herbicidal effect rating ([5]; 0.1250 kg/ha): 6.0 | ECHORC herbicidal effect rating ([5]; 0.2500 kg/ha): 6.0 | ORYSAT rating ([6]; 0.0625 kg/ha): 0.0 | ORYSAT rating ([6]; 0.1250 kg/ha): 0.0 | ORYSAT rating ([6]; 0.2500 kg/ha): 0.0 | ORYSAT rating ([6]; 0.5000 kg/ha): 0.0

Cn1c(C(F)(F)F)cc(=O)n(-c2cc(N=C3NC(=O)CS3)c(Cl)cc2F)c1=O [Compound 39, 3-{4-Chloro-2-fluoro-5-[(4-oxo-2-thiazolidinylidene)amino]phenyl}-1-methyl-6-(trifluoromethyl)-2,4(1H,3H)-pyrimidinedione]
Herbicidal rating MOOVA [1, 7]: 9.0 | Herbicidal rating MOOVA ([1]; rate 0.0625 kg/ha, 3-4 weeks after treatment): 9.0 | Herbicidal rating MOOVA [1, 8]: 9.0 | Herbicidal rating MOOVA [1, 9]: 9.0 | Preemergence herbicidal rating CHEAL ([2]; rate 0.0156 kg/ha): 1.0 | Preemergence herbicidal rating CHEAL ([2]; rate 0.0313 kg/ha): 0.0 | Preemergence herbicidal rating CHEAL ([2]; rate 0.0625 kg/ha): 7.0 | Preemergence herbicidal rating CHEAL ([2]; rate 0.1250 kg/ha): 7.0 | Preemergence herbicidal rating CHEAL ([2]; rate 0.2500 kg/ha): 9.0 | Herbicidal rating CYPSE ([3]; 0.0313 kg/ha): 0.0 | Herbicidal rating CYPSE ([3]; 0.0625 kg/ha): 0.0 | Herbicidal rating CYPSE ([3]; 0.1250 kg/ha): 0.0 | Herbicidal rating CYPSE ([3]; 0.2500 kg/ha): 0.0 | Postemergence herbicidal rating ECHCG ([4]; Rate 0.0158 kg/ha): 0.0 | Postemergence herbicidal rating ECHCG ([4]; Rate 0.0315 kg/ha): 0.0 | Postemergence herbicidal rating ECHCG ([4]; Rate 0.0630 kg/ha): 0.0 | Herbicidal rating ECHORC ([5]; 0.0313 kg/ha): 0.0 | Herbicidal rating ECHORC ([5]; 0.0625 kg/ha): 0.0 | Herbicidal rating ECHORC ([5]; 0.1250 kg/ha): 2.0 | Herbicidal rating ECHORC ([5]; 0.2500 kg/ha): 3.0 | Preemergence herbicidal rating ORYSAT ([6]; rate 0.0156 kg/ha): 0.0 | Preemergence herbicidal rating ORYSAT ([6]; rate 0.0313 kg/ha): 0.0 | Preemergence herbicidal rating ORYSAT ([6]; rate 0.0625 kg/ha): 0.0 | Preemergence herbicidal rating ORYSAT ([6]; rate 0.1250 kg/ha): 1.0 | Preemergence herbicidal rating ORYSAT ([6]; rate 0.2500 kg/ha): 2.0

CC(C)OC(=O)CC1SC(=Nc2cc(-n3c(=O)cc(C(F)(F)F)n(C)c3=O)c(F)cc2Cl)N(C)C1=O (stereo not drawn) [Compound 89, Isopropyl 2-{{2-chloro-5-[3,6-dihydro-3-methyl-2,6-dioxo-4-(trifluoromethyl)-1(2H)-pyrimidinyl]-4-fluorophenyl}imino}-3-methyl-4-oxo-5-thiazolidineacetate]
Herbicidal rating MOOVA [1, 10]: 9.0 | Herbicidal rating MOOVA [1, 11]: 9.0 | Herbicidal rating MOOVA [1, 12]: 9.0 | Herbicidal rating MOOVA [1, 13]: 9.0 | CHEAL rating ([2]; 0.0156 kg/ha): 8.0 | CHEAL rating ([2]; 0.0313 kg/ha): 9.0 | CHEAL rating ([2]; 0.0625 kg/ha): 9.0 | CHEAL rating ([2]; 0.1250 kg/ha): 9.0 | CHEAL rating ([2]; 0.2500 kg/ha): 9.0 | CHEAL rating ([2]; 0.5000 kg/ha): 9.0 | CYPSE herbicidal effect rating ([3]; 0.0313 kg/ha): 0.0 | CYPSE herbicidal effect rating ([3]; 0.0625 kg/ha): 0.0 | CYPSE herbicidal effect rating ([3]; 0.1250 kg/ha): 4.0 | CYPSE herbicidal effect rating ([3]; 0.2500 kg/ha): 6.0 | ECHCG herbicidal rating ([4]; rate 0.0158 kg/ha): 2.0 | ECHCG herbicidal rating ([4]; rate 0.0313 kg/ha): 9.0 | ECHCG herbicidal rating ([4]; rate 0.0625 kg/ha): 9.0 | ECHCG herbicidal rating ([4]; rate 0.1250 kg/ha): 9.0 | ECHORC herbicidal effect rating ([5]; 0.0313 kg/ha): 3.0 | ECHORC herbicidal effect rating ([5]; 0.0625 kg/ha): 4.0 | ECHORC herbicidal effect rating ([5]; 0.1250 kg/ha): 5.0 | ECHORC herbicidal effect rating ([5]; 0.2500 kg/ha): 6.0 | ORYSAT rating ([6]; 0.0156 kg/ha): 0.0 | ORYSAT rating ([6]; 0.0313 kg/ha): 0.5 | ORYSAT rating ([6]; 0.0625 kg/ha): 2.0 | ORYSAT rating ([6]; 0.1250 kg/ha): 4.5 | ORYSAT rating ([6]; 0.2500 kg/ha): 8.0 | ORYSAT rating ([6]; 0.5000 kg/ha): 9.0

Source: patent US20020137929A1, “1 - (3-heterocyclylphenyl) isothiourea, -isourea, -guanidine and -amidine herbicidal agents” (Intellectual Property Department, BASF Aktiengesellschaft, priority 1998, published 2002)
